The source of these data is patent US20040248859A1, “Medicinal compositions for treating secondary parathyroid hyperfunction and remedies for cardiovascular complications in association with treatment for secondary parathyroid hyperfunction” (priority 2001, published 2004).

The test system of data set [1] is 5/6 nephrectomized rats (kidney failure model with 2HPT). Put plainly: Ca and Pi in serum (serum Ca×Pi product) of 5/6 nephrectomized rats. Format: in vivo, rat. The conditions noted are these: for serum Ca×Pi product over the SNX control group: three times a week, 7 administrations. The source says: (§1) Rats with 5/6 nephrectomy (5/6 nephrectomized rats) were used as an experimental model to examine the agent of the present invention for its effect on cardiovascular complications. Such 5/6 nephrectomized rats are widely used as an experimental nephritis model with 2HPT (Ichikawa et al., Nephrology, vol. 4, pp. 391-395, 1998).
(§2) Seven-week-old male SD rats (Japan SLC, Inc.) were subjected to 5/6 nephrectomy according to the method of Platt et al. (Platt R. et al., Clin. Sci. 11, 217-231, 1952) to remove the whole of the right kidney and 2/3 of the left kidney. The rats were then allowed to rest for 10 weeks to create a kidney failure model with 2HPT.
(§3) The nephrectomized rats were divided into 4 test groups: OCT 1.25 μg/kg group (8 rats), OCT 6.25 μg/kg group (8 rats), 1,25(OH)2D3 0.125 μg/kg group (8 rats) and 1,25(OH)2D3 0.625 μg/kg group (8 rats).
(§4) Starting at 10 weeks after surgery, the rats of each group were administered with a given dose of OCT or 1,25-dihydroxyvitamin D3 (each dissolved in phosphate buffer, pH 6.52) via the tail vein. Administration was conducted three times a week for a total of 7 administration (i.e., on Monday, Wednesday, Friday, Monday, Wednesday, Friday and Monday). Twenty-four hours after the last administration, the blood was collected from the abdominal descending aorta of each rat under ether anesthesia. The rats were then sacrificed by exsanguination and the heart and aorta were excised from each rat.
(§5) Six rats of sham-operated (Sham control) group were subjected to renal decapsulation alone instead of 5/6 nephrectomy and then treated in the same manner as used for the test groups, except that phosphate buffer (Ph 6.52) was administered instead of OCT or 1,25-dihydroxyvitamin D3. Likewise, 9 rats of SNX control group were treated in the same manner as used for the test groups, except that phosphate buffer (pH 6.52) was administered instead of OCT or 1,25-dihydroxyvitamin D3.
2. Ca and Pi in serum After serum was separated from the collected blood, Ca and Pi contained in the serum were measured with a Hitachi 7170-E autoanalyzer using an Autosera reagent (Daiichi Pure Chemicals Co., Ltd.) to determine the serum Ca×Pi product for each rat.
(§6) The relationship between Sham control group and SNX control group was analyzed by unpaired t-test. The relationship between SNX control group and each OCT- or 1,25(OH)2D3-administered group was analyzed by Dunnett's multiple comparison test.

For data set [2] the following is noted: in vivo; cited from earlier work.
The subject of data set [3] is 5/6 nephrectomized rats (kidney failure model with 2HPT). Put plainly: Parathyroid hormone levels in blood (serum PTH, radioimmunoassay) of 5/6 nephrectomized rats. It counts as in vivo, rat. The conditions noted are these: for effect on serum PTH levels: all doses (OCT 1.25 and 6.25 μg/kg, 1,25(OH)2D3 0.125 and 0.625 μg/kg), versus SNX control.
Description: as §1, §2, §3
Starting at 10 weeks after surgery, the rats of each group were administered with a given dose of OCT or 1,25-dihydroxyvitamin D3 (each dissolved in phosphate buffer, pH 6.52) via the tail vein. Administration was conducted three times a week for a total of 7 administration (i.e., on Monday, Wednesday, Friday, Monday, Wednesday, Friday and Monday). Twenty-four hours after the last administration, the blood was collected from the abdominal descending aorta of each rat under ether anesthesia. The rats were then sacrificed by exsanguination and the heart and aorta were excised from each rat. […]
After serum was separated from the collected blood, the level of parathyroid hormone (PTH) contained in the serum was measured with a commercially available radioimmunoassay kit (Immutopics, Inc., USA).
as §6

The test system is the same in data set [4]. Put plainly: Ca and Pi contents in individual organs (aorta and heart) of 5/6 nephrectomized rats. It counts as in vivo, rat.
Description: as §1, §2, §3, §4, §5
Each heart and aorta were lyophilized for 24 hours in a FREEZE DRYER FD-5N (trade name, EYELA) and then treated for 48 hours with a chloroform/methanol solution (chloroform:methanol=2:1, special-reagent-grade chloroform and methanol were both purchased from Junsei Chemical Co., Ltd.). Subsequently, each organ was dehydrated for 3 hours with acetone (special reagent grade, Junsei Chemical Co., Ltd.) and then allowed to stand at room temperature for 24 hours. After delipidization and dehydration, each organ was transferred to a crucible and weighed to determine dry weight (Mettler). Ashing was carried out in a muffle furnace KDF S90 (trade name, Denken Co., Ltd., Kyoto, Japan) at 900° C. for 12 hours. The ashed sample was mixed with […] hydrochloric acid (1.0 mL), allowed to stand for 3 hours to dissolve sufficiently, and then collected in a polypropylene tube. The crucible was washed with purified water (1.0 mL), which was then also collected in the tube. Each sample was stored at 4° C. until measurement. Ca and Pi were measured with a Hitachi 7170-E autoanalyzer to calculate the Ca and Pi contents per gram of each organ.
as §6

Where [5] appears, read: 5/6 nephrectomized rats, via tail vein.
Where [6] appears, read: 1,25(OH)2D3 0.125 μg/kg group versus OCT 6.25 μg/kg group (almost the same serum Ca×Pi product).

Bounds are passed on as bounds.

Take `C=C1/C(=C\C=C2/CCC[C@]3(C)[C@@H]([C@H](C)CCCC(C)(C)O)CC[C@@H]23)C[C@@H](O)C[C@@H]1O` [1,25-dihydroxyvitamin D3]: in data set [1] (0.125 μg/kg via tail vein), the “serum Ca×Pi product over the SNX control group” value was “no significant elevation”. Besides, the “serum Ca×Pi product over the SNX control group” value in data set [1] (0.625 μg/kg via tail vein, 24 h after last administration, p<0.001) was “significant elevation”. For the same compound, the “minimum dose required to produce an elevating action on Ca×Pi product” value in data set [1] (setting [5]) turned out to be 0.625 µg/kg. Further, the “serum Ca×Pi product, comparison of the two groups” value in data set [1] (OCT 6.25 μg/kg group versus 1,25(OH)2D3 0.125 μg/kg group) was “almost the same level”. The blood half-life in data set [2] is ≥ 1 h. In data set [3] (setting [5]), the “dose at which the therapeutic effect on secondary hyperparathyroidism (decreasing effect on PTH levels) can be produced” value came to 0.125 µg/kg. In data set [3], the “effect on serum PTH levels” value was “decreasing effect on PTH levels at all doses”. Also, in data set [4] (0.125 and 0.625 μg/kg, p<0.001), the “Ca content in the aorta over the SNX control group” value is recorded as “dose-dependent significant increases”, the “Ca content in the heart over the SNX control group” value is “dose-dependent significant increases”, the “Pi content in the aorta over the SNX control group” value is “dose-dependent significant increases” and the “Pi content in the heart over the SNX control group” value is “dose-dependent significant increases”. In data set [4] (setting [6]), the “deposition of Ca in the aorta as compared to OCT” value is given as “apparently higher deposition” and the “deposition of Pi in the aorta as compared to OCT” value is “apparently higher deposition”. In addition, in data set [4] (1,25(OH)2D3 0.125 μg/kg group versus OCT 6.25 μg/kg group, p<0.01), the “deposition of Pi in the heart as compared to OCT” value is “significantly higher deposition”. The “deposition of Ca in the heart as compared to OCT” value in data set [4] (1,25(OH)2D3 0.125 μg/kg group versus OCT 6.25 μg/kg group, p<0.05) was “significantly higher deposition”.

Consider `C=C1/C(=C\C=C2/CCC[C@]3(C)[C@@H]([C@H](C)OCCC(C)(C)O)CC[C@@H]23)C[C@@H](O)C[C@@H]1O` [OCT, 1α,3β-dihydroxy-20S-(3-hydroxy-3-methylbutyloxy)-9,10-seco-5,7,10(19)-pregnatriene], for which the blood calcium levels result in data set [1] (rat, in vivo) is recorded as “does not cause increase”. In data set [2], the blood half-life result is on record as “about 20 minutes”. In addition, in data set [3], the “effect on serum PTH levels” value is “decreasing effect on PTH levels at all doses”. The “deposition of Ca and Pi in the aorta and heart, OCT-administered groups versus 1,25(OH)2D3-administered groups” value in data set [4] (rat, in vivo) is given as “significantly lower deposition”.
